According to PubChem BioAssay (NCI):
“And” between values parts separate entries of the source, which are not always exact repeats. Equal entries are not always repeated.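 Each compound was tested at five concentrations against cells in 96-well plates for 48 hours. GI50 = concentration required for 50% inhibition of growth. TGI is the concentration that stops growth completely.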

Assays:
Assay in all cases: DTP human tumour cell line panel, 48 h
DLD-1 colon = tested on: DLD-1 colon
DMS 114 small cell lung = tested on: DMS 114 small cell lung
HOP-18 NSCLC = tested on: HOP-18 NSCLC
KM20L2 colon = tested on: KM20L2 colon
RXF-631 renal = tested on: RXF-631 renal
SNB-78 CNS = tested on: SNB-78 CNS
BT-549 breast = tested on: BT-549 breast
DU-145 prostate = tested on: DU-145 prostate
HS 578T breast = tested on: HS 578T breast
MDA-MB-435 = tested on: MDA-MB-435
NCI/ADR-RES ovarian = tested on: NCI/ADR-RES ovarian
T-47D breast = tested on: T-47D breast

Row | SMILES | TGI (DLD-1 colon) [µM] | TGI (DMS 114 small cell lung) [µM] | TGI (HOP-18 NSCLC) [µM] | TGI (KM20L2 colon) [µM] | TGI (RXF-631 renal) [µM] | TGI (SNB-78 CNS) [µM] | other results
1 | CC1C=CC(=O)C(n2cc(F)c(=O)[nH]c2=O)O1 (stereo not given) | 45.3 | 31.5 | 22.6 | 37.5 | 48 | 83.8 | –
2 | CC12CCC[C@@](C)(C(=O)OC3OC(CO)C(O)C(O)C3O)[C@H]1CCC13CC4CC(OC4(CO)[C@H]1O)[C@@H]23 (stereo not given in full) | > 100 | 87.9 | > 100 | > 100 | > 100 | > 100 | –
3 | CCCCCCCC/C=C\CCCCCCCC(=O)NCCN(CCN)C(=O)CCCCCCC/C=C\CCCCCCCC | > 100 | > 100 | > 100 | > 100 | – | – | –
4 | CC(C)=CC(=O)Cc1nc2cc(C)c(C)cc2[nH]c1=O | > 100 | – | > 100 | > 100 | > 100 | > 100 | –
5 | O=C(Nc1nc2ncn(CC(COc3ccccc3)OC(=O)c3ccccc3)c2c(=O)[nH]1)c1ccccc1 (stereo not given) | – | > 100 | – | > 100 | > 100 | – | –
6 | CC1=C(C(=O)Nc2ccc(Cl)c(Cl)c2)C(c2ccco2)C(C(=O)Nc2ccc(Cl)c(Cl)c2)=C(C)N1 | 23.4 | 22.2 | 26.7 | – | 46 | 41.4 | –
7 | CCN(CC)C(=O)COc1ccc(Br)cc1Br | > 100 | > 100 | > 100 | > 100 | > 100 | > 100 | –
8 | CC1OC(OCC2COC(O)(Oc3c(-c4ccc(O)c(O)c4)oc4cc(O)cc(O)c4c3=O)C(O)C2O)C(O)C(O)C1O (stereo not given) | > 100 | > 100 | > 100 | > 100 | > 100 | > 100 | –
9 | CC1=C(C(=O)NCc2ccccc2)C(c2ccccc2[N+](=O)[O-])C(C(=O)NCc2ccccc2)=C(C)N1 | 20.3 | 29.8 | 35.1 | 30.3 | 29.2 | 42.6 | –
10 | CC(=O)O[C@H]1C(=O)[C@@]2(C)C(C(OC(=O)c3ccccc3)[C@]3(O)CC(OC(=O)C(O)C(NC(=O)c4ccc(C)cc4)c4ccccc4)C(C)=C1C3(C)C)[C@]1(OC(C)=O)CO[C@@H]1C[C@@H]2O (stereo not given in full) | 15.4 | < 0.0025 | – | – | – | > 25 | –
11 | Nc1nc2nc[nH]c2c(=O)[nH]1 | > 100 | – | > 100 | > 100 | – | > 100 | –
12 | N#CCCN(c1ccc(-c2nnc(NC(=O)CNNC(=O)CC(=O)Nc3ccccc3)s2)cc1)S(=O)(=O)c1ccccc1 | > 100 | > 100 | > 100 | – | > 100 | – | –
13 | O=C(NO)C12C3C4C1C1C2C3C41C(=O)NO (stereo not given) | > 100 | > 100 | > 100 | > 100 | – | > 100 | –
14 | O=[N+]([O-])c1nccn1COCCF | > 100 | > 100 | – | > 100 | – | > 100 | –
15 | COc1ccc([C@H]2CC(=O)NCCCCN2)cc1 | > 100 | > 100 | > 100 | > 100 | – | > 100 | –
16 | O=C1OC(O)C(Oc2ccc(Cl)cc2)=C1Cl (stereo not given) | > 100 | > 100 | – | > 100 | > 100 | > 100 | –
17 | CO[C@@H]1[C@H](OC(=O)NC(=O)CCl)CC[C@]2(CO2)[C@H]1[C@@]1(C)O[C@@H]1CC=C(C)C | 42 | 23.4 | – | 41.5 | 3.14 | – | GI50 (BT-549 breast): 16.8 µM; TGI (BT-549 breast): 37.6 µM and 59.1 µM; GI50 (DLD-1 colon): 5.1 µM; GI50 (DMS 114 small cell lung): 2.17 µM; GI50 (DU-145 prostate): 22.2 µM; TGI (DU-145 prostate): 29.3 µM and 46.3 µM; TGI (HS 578T breast): 63.7 µM and 157 µM; GI50 (MDA-MB-435): 5.68 µM; TGI (MDA-MB-435): 29.3 µM and 36.8 µM; GI50 (NCI/ADR-RES ovarian): 27.9 µM; TGI (NCI/ADR-RES ovarian): 62.4 µM and 111 µM; GI50 (T-47D breast): 4.03 µM; TGI (T-47D breast): 41.9 µM and 68.9 µM
18 | COC(=O)[C@]1(C)CCC[C@@]2(C)C1CCC1=CC3(C(C)C)CCC12OO3 (stereo not given in full) | > 100 | – | – | > 100 | > 100 | > 100 | –
19 | Cc1cc(O)cc2c1O[C@@]1(C)CCC3[C@@]4(C)CC[C@H](O)C(C)(C)C4CC[C@@]3(C)[C@H]1C2 (stereo not given in full) | 12.6 | 19.9 | 27.8 | – | – | 22.1 | –
20 | O=C(COc1ccccc1)NS(=O)(=O)c1ccccc1 | > 100 | > 100 | > 100 | > 100 | > 100 | > 100 | –

Row | SMILES | TGI (DLD-1 colon) [µM] | TGI (DMS 114 small cell lung) [µM] | TGI (HOP-18 NSCLC) [µM] | TGI (KM20L2 colon) [µM] | TGI (RXF-631 renal) [µM] | TGI (SNB-78 CNS) [µM] | other results
21 | NC1=N/C(=C2/CCNC(=O)c3[nH]c(Br)cc32)C(=O)N1 | > 100 | > 100 | > 100 | > 100 | – | > 100 | TGI (BT-549 breast): 53.3 µM; TGI (DU-145 prostate): > 100 µM; TGI (HS 578T breast): > 91.2 µM; TGI (MDA-MB-435): > 55.5 µM; GI50 (NCI/ADR-RES ovarian): 11.9 µM and > 43.3 µM; TGI (NCI/ADR-RES ovarian): > 100 µM; TGI (T-47D breast): 51.8 µM
22 | Nc1ccn(C2CC(CO)C(O)C2O)c(=O)n1 (stereo not given) | > 57.7 | > 57.7 | > 57.7 | > 57.7 | > 57.7 | > 57.7 | –
23 | CC(C)(C)C(=O)C1CC(=O)c2ccccc2C1=O (stereo not given) | > 100 | > 100 | > 100 | > 100 | > 100 | 90.7 | –
24 | Cc1ccccc1CN1CC=c2ccccc2=N1 | > 100 | > 100 | > 100 | > 100 | > 100 | > 100 | –
25 | C1=Cc2nc1c(-c1ccncc1)c1ccc([n-]1)c(-c1ccncc1)c1nc(c(-c3ccncc3)c3ccc([n-]3)c2-c2ccncc2)C=C1.[Zn+2] | > 100 | > 100 | – | > 100 | > 100 | > 100 | –
26 | COc1ccc2nc3ccccc3c(NCCCCCCN(C)CCCl)c2c1 | – | 1.69 | – | 2.54 | – | 4.79 | –
27 | CC(C)OP(=O)(OC(C)C)C(=Nc1ccccc1)NNc1ccc([N+](=O)[O-])cc1 | > 100 | 69.5 | – | > 100 | – | 43.1 | –
28 | NC(=S)N/N=C1/C(=O)N(c2ccc(Cl)cc2Cl)C(=O)C(=O)C1c1nc2ccccc2s1 (stereo not given) | – | > 100 | > 100 | > 100 | – | > 100 | –
29 | COC(=O)C(Cl)=C1CC1 | 64.1 | 95.6 | – | > 100 | – | > 100 | –
30 | CN(C)CC1(C)CC/C(=C\c2ccccc2)C1=O (stereo not given) | > 100 | > 100 | > 100 | > 100 | > 100 | > 100 | –
31 | OCC12C3C4C1C1C2C3C41CO (stereo not given) | > 100 | > 100 | > 100 | > 100 | > 100 | > 100 | –
32 | O=C(Nc1c(O)[nH]c(=S)[nH]c1=O)c1ccc2ccccc2n1 | > 100 | > 100 | > 100 | > 100 | > 100 | > 100 | –
33 | O=c1cnn2c(n1)sc1ccc3ccccc3c12 | > 100 | > 100 | > 100 | > 100 | – | > 100 | –
34 | Cc1ccc(Cl)c(NC(=O)C(=O)C(C(=O)c2ccncc2)C2OC(=O)c3ccccc32)c1 (stereo not given) | > 100 | > 100 | > 100 | – | > 100 | > 100 | –
35 | O=c1c2ccccc2c2nc3ccccc3nc2n1C1CCCCC1 | – | > 100 | – | > 100 | – | > 100 | –
36 | O=C(O)CC/C(=N\Nc1nsc2ccccc12)c1ccc(Cl)cc1 | – | > 100 | 52 | > 100 | – | > 100 | TGI (BT-549 breast): 74.3 µM; TGI (DU-145 prostate): > 100 µM; TGI (HS 578T breast): > 100 µM; TGI (MDA-MB-435): 75.3 µM; TGI (T-47D breast): > 100 µM
37 | Cc1cc(Cl)ccc1N=C1NC(=O)C(CC(=O)Nc2ccc(Cl)cc2Cl)S1 (stereo not given) | > 100 | > 100 | – | > 100 | > 100 | > 100 | –
38 | Cc1cc(Cl)cc2c1NC(=O)C2(O)C(C)C(=O)c1ccc(Cl)cc1 (stereo not given) | > 100 | > 96.6 | > 100 | > 100 | – | > 100 | –
39 | Cc1ccc(C)c(NC(=O)CC/C(=N\NC(=O)C(N)=O)C(C)C(=O)c2ccc(O)cc2)c1 (stereo not given) | > 100 | > 100 | > 100 | > 100 | > 100 | > 100 | –
40 | CCOC(=O)c1cn(Cc2ccccc2)c(=O)n1Cc1ccccc1 | > 100 | > 100 | > 100 | > 100 | > 100 | > 100 | –
